Test [1] deals with NOD females. As to the kind of experiment: Spontaneous diabetes in NOD females (incidence, IPGTT, insulitis). The format is in vivo, mouse. How it is done: Mice were monitored for diabetes development by testing blood glucose from 10 wk of age by One Touch Profile diabetes tracking system, as described above.
Intraperitoneal glucose tolerance test (IPGTI) was performed in the group of non-diabetic WHI-P131-treated and vehicle-treated control NOD females on the end of experimental period (25 wk of age of NOD mice). Mice were fasted for 10 hours, and the glucose solution (1.5 g/kg body weight) was injected i.p. Before and after injection of glucose, blood samples were taken and blood glucose levels were measured (as described above) at 0, 30, 60 and 120 min time points.
The group of control and WHI-P131-treated non-diabetic NOD females was sacrificed at the end of experimental period, at 25 wksof age, and characteristic histopathologic lesion of islets (insulitis) was evaluated in each mouse scoring at least 25 islets per mouse. Briefly, pancreas was removed, fixed in 10% formalin, parafin embedded, cut and stained with hematoxylin and eosin for light microscopic examinations.

Test [2] deals with HaCaT human epidermal cells. Put plainly: UVB-induced PGE2 release (EIA). Conditions: light or radiation study, UVB 25 mj/cm^2, 6 h, read-out: inhibition in UVB light induced prostaglandin release. The format is cell-based. An excerpt:
HaCaT, which is a spontaneously transformed human epidermal cell line (16) was maintained in Dulbecco's modified Eagle's medium (DMEM) supplemented with 10% fetal bovine serum (Summit Biotech, Ft. Collins, Colo.).
A bank of 8-FSX24T12/HO/UVB lamps (National Biological Corporation, Twinsburg, Ohio) that emits light predominantly in the UVB range, 280-320 nm was used to irradiate mice and cell cultures. The irradiance of UVB lamps was always measured before irradiation using a UVB meter (model—500C obtained from National Biological Corporation, Twinsburg, Ohio). The dose of UVB light used to irradiate cultures was 25 mj/cm^2. Anesthetized mice received UVB radiations to a 2.0 cm^2 area on their dorsal surface. […]
Confluent HaCaT cells cultured in 24-well culture dishes were washed three times with serum-free DMEM containing 1% bovine serum albumin (BSA) (Cayman chemicals, Ann Arbor, Mich.) and incubated with 3-30 μM compound compound 6 for 1 hour at 37° C. After incubation the cells were washed twice with PBS, and either exposed to 25 mj/cm^2 UVB light or stimulated with 50 ng/ml rhEGF, and fed with serum-free DMEM containing 1% BSA. compound 6 was readministered and the cells were incubated for 6 h at 37° C. […] Cellular protein was determined using the Pierce's BCA protein assay method (Smith, P. K., et al., 1985, Anal Biochem. 150 (1):76-85).

Test [3] deals with NALM-6 cells. Put plainly: In situ TUNEL apoptosis assay. In kind it is cell-based. Conditions: Homo sapiens, 10-500 μM, 48 hours, read-out: EC50, percentage of apoptotic cells (TUNEL). The source says: Apoptosis Assays Cells were examined for apoptotic changes after treatment with compound 6 by the in situ terminal […] transferase-mediated dUTP end-labeling (TUNEL) assay using the ApopTag apoptosis detection kit (Oncor, Gaithersburg, Md.) according to the manufacturer's recommendations, as detailed in our earlier reports (Zhu, D. -M., et al., Clin. Can. Res. 4: 2967-2976, 1998; D'Cruz, O., P., G., and Uckun, F. M. Biology of Reproduction. 58: 1515-1526, 1998).
To confirm that compound 6 can induce apoptosis in leukemia cells, the TdT-mediated labeling of 3′-OH termini with digoxigenin-conjugated UTP using the in situ TUNEL assay method combined with confocal laser scanning microscopy was employed. At 48 hours after treatment with compound 6 at concentrations ranging from 10 μM to 500 μM, NALM-6 cells were examined for digoxigenin-dUTP incorporation using FITC-conjugated anti-digoxigenin (green fluorescence) and propidium iodide counterstaining (red fluorescence). […] FIG. 8B.1 and 8B.2 depict the two-color confocal microscopy images of vehicle-treated control cells and cells treated with 100 μM compound 6. […] Because of their exquisite sensitivity in detecting DNA fragments released from a small percentage of apoptotic cells, the DNA gel assays of apoptosis are uniquely suited to examine the nonspecific toxicity of new antileukemic agents.

Consider one compound from patent US6469013B2, “Therapeutic compounds” (Parker Hughes Institute, priority 1998, dated 2002).

Usually inhibition stands for the relative decrease from the control value, in per cent. The EC50 is the concentration giving half of the maximal effect. Turning to `COc1cc2ncnc(Nc3ccc(O)cc3)c2cc1OC` [WHI-P131, 4-(4′-hydroxyl-phenyl)-amino-6,7-dimethoxyquinazoline], the diabetes incidence came out at 56% in test [1] (20 mg/kg daily, till 18 wks of age); 18% in test [1] (50 mg/kg daily, 5 to 25 wks of age, at 25 wks); 9% in test [1] (100 mg/kg, 'the first treatment', at 25 wks of age, p=0.007); 18% in test [1] (100 mg/kg, 'the later one', at 25 wks of age, p=0.025); 83% in test [1] (100 mg/kg, short course wks 5 to 9, by 25 wks of age). Further, the “age at which mice started to develop diabetes” value in test [1] (50 mg/kg daily from 5 wks, control 13 wks) is 22 wks. Further, the “age at which diabetes started” value in test [1] (100 mg/kg, short course wks 5 to 9) stood at 10 wks. The Insulitis score in test [1] (100 mg/kg, treated from 5-25 wks of age, controls 1.43±0.15) is given as 0.86±0.12; in test [1] (100 mg/kg, treated from 10-25 wks of age) it was 1.42±0.24. Further, the inhibition at 30 µM in test [2] was roughly 90%. Further, the EC50 in test [3] was 84.6 µM.
